Data on 7 compounds can be found in ChEMBL document CHEMBL1201862, “PubChem BioAssay data set” (2004).

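Where inhibition never reached the appropriate level, the endpoint shown equals the highest concentration tested. Otherwise, values were interpolated linearly from a five-concentration, 48-hour dose response in 96-well plates. Abbreviation: GI50, concentration required for 50% inhibition of growth.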 Activity calls are given as the source filed them. No stated cut-off is given here; in the data, active = GI50 up to about 1.1 µM and inactive = higher.

Common to all, as to assay: growth of human tumour cells (NCI), 48 h
Assay [1] relates to SK-MEL-2.
The test system of assay [2] is OVCAR-5.
Assay [3] relates to CAKI-1.
For assay [4], the system named is SF-268.
Assay [5] has as its system SNB-19.
The test system of assay [6] is LOX IMVI.
For assay [7], the system named is KM12.
Assay [8] relates to SK-MEL-5.
The subject of assay [9] is MDA-MB-435.
Assay [10] has as its system MDA-MB-231.
In assay [11] the test system is DU-145.
In assay [12] the test system is OVCAR-8.
In assay [13] the test system is NCI-H460.
In assay [14] the test system is OVCAR-3.
In assay [15] the test system is NCI/ADR-RES.
The subject of assay [16] is SF-295.
Assay [17] concerns HCT-15.
In assay [18] the test system is HL-60.
Assay [19] relates to UACC-62.
Assay [20] concerns MOLT-4.

Regarding `COc1cc2nc(-c3ccccc3)cc(O)c2cc1OC`, the GI50 in assay [1] was 22.4 µM (inactive); in assay [2] it was 41.1 µM (inactive); in assay [3], 23.6 µM (inactive); in assay [4], 41.6 µM (inactive); in assay [5], 25.2 µM (inactive); in [6], 10.7 µM (inactive). Moreover, the GI50 was 3.81 µM (inactive) in assay [7]; 5.78 µM (inactive) in assay [8]; 2.86 µM (inactive) in assay [9]; 26.7 µM (inactive) in assay [10]; 54 µM (inactive) in assay [11]; 35.1 µM (inactive) in [12]. Also, the GI50 was 11.2 µM (inactive) in assay [13]; 4.44 µM (inactive) in [14]; 54.8 µM (inactive) in assay [15]; 18.5 µM (inactive) in assay [16]; 10.2 µM in assay [17]; 5.78 µM (inactive) in assay [18]. The GI50 is 10.8 µM (inactive) in assay [19] and 17.6 µM (inactive) in assay [20].

In the case of `Cc1ccc(NC(=O)c2cccc(OP(=O)(Nc3ccc(C)cc3)Nc3ccc(C)cc3)c2)cc1`, the GI50 was 15.3 µM (inactive) in [1]; 38.5 µM (inactive) in assay [2]; 12.8 µM (inactive) in assay [3]; 43.1 µM (inactive) in assay [4]; 35.1 µM (inactive) in assay [5]; 10.9 µM (inactive) in assay [6]. Further, the GI50 in assay [7] was 5.5 µM (inactive); in assay [8] it was 13.2 µM (inactive); in assay [9] it was 7.48 µM (inactive); in assay [10], 3.32 µM (inactive); in assay [11], 53.3 µM (inactive); in assay [12], 16 µM (inactive). For the same compound, the GI50 is 3.88 µM (inactive) in assay [13]; 5.83 µM (inactive) in assay [14]; 12 µM (inactive) in assay [15]; 7.13 µM (inactive) in assay [16]; 6.01 µM in assay [17]; 9.95 µM (inactive) in assay [18]. In addition, the GI50 is 20.3 µM (inactive) in assay [19] and 2.61 µM (inactive) in assay [20].

For the compound `C=C1C(=O)OC2/C=C(CO)/C=C\C3OC3(C)CC(OC(=O)/C(C)=C/COC(C)=O)C12` (stereo not given), the GI50 is 3.75 µM (inactive) in assay [1]; 13.9 µM (inactive) in assay [2]; 2.76 µM (inactive) in [3]; 4.04 µM (inactive) in assay [4]; 12.5 µM (inactive) in assay [5]; 1.34 µM (inactive) in assay [6]. In addition, the GI50 in assay [7] was 5.28 µM (inactive); in [8] it was 5 µM (inactive); in assay [9], 2 µM (inactive); in assay [10] it was 2.66 µM (inactive); in assay [11], 16.6 µM (inactive); in [12], 2.47 µM (inactive). The GI50 is 5.69 µM (inactive) in assay [13]; 2.46 µM (inactive) in assay [14]; 3.97 µM (inactive) in [15]; 14.8 µM (inactive) in assay [16]; 1.87 µM in [17]; 0.34 µM (active) in assay [18]. Besides, the GI50 was 2.2 µM (inactive) in assay [19] and 0.802 µM (active) in assay [20].

Regarding `CC1(C)OC(=O)N(c2ccccc2)C12C=Cc1cc([N+](=O)[O-])ccc1O2` (stereo not given), the GI50 in assay [1] is 33.4 µM (inactive); in assay [2], 26.9 µM (inactive); in [3] it was 50.1 µM (inactive); in assay [4], 51.1 µM (inactive); in assay [5], 35.5 µM (inactive); in [6], 48.2 µM (inactive). For the same compound, the GI50 in assay [7] is 56.6 µM (inactive); in [8] it was 36.4 µM (inactive); in assay [9] it was 20 µM (inactive); in assay [10] it was 19.4 µM (inactive); in assay [11], 29.4 µM (inactive); in [12], 51.6 µM (inactive). Also, the GI50 in [13] is 49.9 µM (inactive); in assay [14], 21.7 µM (inactive); in assay [15], 30.2 µM (inactive); in assay [16] it was 37.5 µM (inactive); in [17], 48.8 µM; in assay [18], 20.1 µM (inactive). For the same compound, the GI50 was 31.3 µM (inactive) in assay [19] and 21.7 µM (inactive) in [20].

For the compound `NC1=NC(NCC2(CO)CCC2)=CC(OCC2(CO)CCC2)N1` (stereo not given), the GI50 in assay [1], in [2], in assay [3], in [4], in assay [5] and in assay [6] was > 100 µM (inactive) each time. Further, the GI50 in [7] is > 100 µM (inactive); in assay [8], 79.3 µM (inactive); in assay [9], > 100 µM (inactive); in assay [10], > 100 µM (inactive); in assay [11] it was > 100 µM (inactive); in [12], > 100 µM (inactive). In addition, the GI50 in [13] was > 100 µM (inactive); in [14] it was > 100 µM (inactive); in assay [15], > 100 µM (inactive); in assay [16], > 100 µM (inactive); in [17], above 100 µM; in assay [18] it was 78.2 µM (inactive). Also, the GI50 in [19] is > 100 µM (inactive); in assay [20] it was 65.9 µM (inactive).

In the case of `O=C1/C(=C\c2cccc(Oc3ccccc3)c2)SC(c2ccccc2)N1c1ccccc1` (stereo not given), the GI50 in [1] was > 100 µM (inactive); in [2], > 100 µM (inactive); in assay [3], > 100 µM (inactive); in assay [4], > 100 µM (inactive); in [5], 58.1 µM (inactive); in assay [6], 31.9 µM (inactive). The GI50 in assay [7] was 46.9 µM (inactive); in [8] it was 27.1 µM (inactive); in assay [9], 33.7 µM (inactive); in assay [10], > 100 µM (inactive); in [11], > 100 µM (inactive); in [12], 42.2 µM (inactive). Besides, the GI50 was > 100 µM (inactive) in [13]; 95.7 µM (inactive) in assay [14]; 75.3 µM (inactive) in assay [15]; > 100 µM (inactive) in assay [16]; 77.3 µM in assay [17]; 46.8 µM (inactive) in assay [18]. The GI50 was 43.3 µM (inactive) in [19] and 23.2 µM (inactive) in [20].

With `Cc1cccc(CNNC(=O)c2cc[n+]([BH2-]C#N)cc2)c1`, the GI50 was 34.9 µM (inactive) in assay [1]; 37.5 µM (inactive) in [2]; 32.4 µM (inactive) in assay [3]; 26.7 µM (inactive) in assay [4]; 48.2 µM (inactive) in assay [5]; 20.1 µM (inactive) in assay [6]. Moreover, the GI50 was 22.6 µM (inactive) in assay [7]; 17.2 µM (inactive) in [8]; 28.3 µM (inactive) in [9]; 20.6 µM (inactive) in assay [10]; 24.7 µM (inactive) in assay [11]; 24.6 µM (inactive) in assay [12]. The GI50 in assay [13] was 36.5 µM (inactive); in [14] it was 32.1 µM (inactive); in [15], 24.7 µM (inactive); in [16], 36.1 µM (inactive); in assay [17], 21.4 µM; in assay [18] it was 22.5 µM (inactive). Also, the GI50 was 62.7 µM (inactive) in assay [19] and 28.2 µM (inactive) in [20].
